Test results: publication PMC9133036 (Nature Communications, 2022)
Numbering of substitutions follows the chain as printed. Several values for one entry are separate records, joined by “and”; a condition that tells them apart may be missing. Identical values can stand only once. Like-named read-outs stand apart in the source and are kept apart here.

What was measured:
OX2R F346A = biological target: T1, OX2R F346A (Homo sapiens, UniProt O43614, F346A); assay: β-arrestin PathHunter assay, OX2R F346A; type: cell-based; details: β-arrestin recruitment
T1 construct: expressed in transfected cells; host or cells: CHO-K1 stably expressing EA β-arrestin2
Description: (§1) β-Arrestin recruitment activity was measured by using the PathHunter system (DiscoveRX) according to the manufacturer’s instruction. Receptor constructs used were the full-length wild-type (or mutant) human OX2R sequences cloned into pCMV-ProLink (DiscoveRX). CHO-K1 cells stably expressing EA β-arrestin2 (DiscoveRX) were plated on 384 well white plates (Thermo Fisher) at 4000 cells/well in HamF12 (Wako Pure Chemical Industries) supplemented with 10% fetal bovine serum (Corning) and penicillin-streptomycin (Wako Pure Chemical Industries) and incubated overnight at 37 °C under 5% CO2. Cells were transfected with plasmids encoding wild type or each mutant ProLink-tagged human OX2R using FuGENE HD (Promega). […] Detection reagent was added and incubated for 1 h at room temperature. Luminescent signal was detected using an EnVision plate reader (PerkinElmer). β-arrestin assays on different constructs were performed in two or three independent experiments (each done in quadruplicate). Dose response curves (shown in Supplementary Fig. 8) were fitted to the three-parameter model ‘log(agonist) vs response’ in GraphPad Prism to determine pEC50 values.

OX2R T111S = biological target: T2, OX2R T111S (Homo sapiens, UniProt O43614, T111S); assay: IP accumulation assay, OX2R T111S; type: cell-based
T2 construct: FLAG; expressed in transfected cells; host or cells: HEK293
T2 sequence (O43614 1-444 T111S): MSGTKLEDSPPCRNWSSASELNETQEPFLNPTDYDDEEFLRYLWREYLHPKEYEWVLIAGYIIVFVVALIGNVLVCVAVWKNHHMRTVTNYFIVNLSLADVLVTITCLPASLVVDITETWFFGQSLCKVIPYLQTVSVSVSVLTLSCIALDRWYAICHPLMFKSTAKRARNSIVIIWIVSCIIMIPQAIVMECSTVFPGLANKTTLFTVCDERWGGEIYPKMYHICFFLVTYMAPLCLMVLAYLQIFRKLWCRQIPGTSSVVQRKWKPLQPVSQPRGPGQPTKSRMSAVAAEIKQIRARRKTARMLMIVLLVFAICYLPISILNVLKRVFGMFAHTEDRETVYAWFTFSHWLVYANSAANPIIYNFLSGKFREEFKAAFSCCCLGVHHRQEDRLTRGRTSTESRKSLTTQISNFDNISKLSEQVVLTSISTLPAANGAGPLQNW
Text: (§2) The IP assay was adapted from a prior precedent. HEK293 cells were maintained in DMEM-high glucose (Millipore Sigma) supplemented with 5% fetal bovine serum (Corning) and penicillin-streptomycin (Millipore Sigma). Receptor constructs used were the full-length wild-type (or mutant) human OX1R and OX2R sequences cloned into pCDNA3. To enhance the Emax in the IP assay, a plasmid encoding full-length human Gαq subunit[66] was co-transfected into HEK293 cells with plasmids encoding orexin receptor constructs using Lipofectamine 3000 (Thermo Fisher). 24 h after transfection, the cells were plated on poly-D-lysine coated (Millipore Sigma) tissue culture-treated 96 well white plates with clear bottoms (Perkin Elmer) at 30,000 cells per well in Inositol-free DMEM (MP Biomedicals) supplemented with 5% fetal bovine serum, 4 mM L-glutamine (Millipore Sigma), penicillin-streptomycin, and about 5 uCi (5 ul) per ml myo-[2-3H] inositol (Perkin Elmer). The following day, the media was replaced with agonists that were diluted in HBSS (Millipore Sigma) containing 10 mM lithium chloride (Millipore Sigma) and incubated at 37 °C for 45 min. Then agonists were removed and cells were lysed on ice for 30 min with 10 mM formic acid (Millipore Sigma). 1.25 mg of poly-lysine coated YSI SPA beads (Perkin Elmer) was added to each well. The plates were mixed on an orbital shaker for 30 min. The plates were read on a MicroBeta scintillation counter (Perkin Elmer) the following day. IP accumulation assays on different constructs were performed in n ≥ 3 independent experiments (each done in duplicate), where n is shown in Supplementary Table 2.

OX2R K327A = biological target: T3, OX2R K327A (Homo sapiens, UniProt O43614, K327A); assay: β-arrestin PathHunter assay, OX2R K327A; type: cell-based; details: β-arrestin recruitment
T3 construct: expressed in transfected cells; host or cells: CHO-K1 stably expressing EA β-arrestin2
Description: as §1

OX2R T111S/T135A = biological target: T4, OX2R T111S/T135A (Homo sapiens, UniProt O43614, T111S/T135A); assay: IP accumulation assay, OX2R T111S/T135A; type: cell-based; details: for EC50: IP accumulation
T4 construct: FLAG; expressed in transfected cells; host or cells: HEK293
T4 sequence (O43614 1-444 T111S/T135A): T2 sequence (O43614 1-444 T111S) with T135A
Text: as §2

OX2R V353A = biological target: T5, OX2R V353A (Homo sapiens, UniProt O43614, V353A); assay: β-arrestin PathHunter assay, OX2R V353A; type: cell-based; details: β-arrestin recruitment
T5 construct: expressed in transfected cells; host or cells: CHO-K1 cells stably expressing EA β-arrestin2 (DiscoveRX), transiently transfected with pCMV-ProLink OX2R
Description: as §1

OX2R = details: cited from earlier work
OX2R R328A = biological target: T6, OX2R R328A (Homo sapiens, UniProt O43614, R328A); assay: β-arrestin PathHunter assay, OX2R R328A; type: cell-based; details: β-arrestin recruitment
T6 construct: expressed in transfected cells; host or cells: CHO-K1 stably expressing EA β-arrestin2
Description: as §1

wakefulness = details: subcutaneous delivery during the sleep period; cited from earlier work

T3 sequence (O43614 whole entry K327A): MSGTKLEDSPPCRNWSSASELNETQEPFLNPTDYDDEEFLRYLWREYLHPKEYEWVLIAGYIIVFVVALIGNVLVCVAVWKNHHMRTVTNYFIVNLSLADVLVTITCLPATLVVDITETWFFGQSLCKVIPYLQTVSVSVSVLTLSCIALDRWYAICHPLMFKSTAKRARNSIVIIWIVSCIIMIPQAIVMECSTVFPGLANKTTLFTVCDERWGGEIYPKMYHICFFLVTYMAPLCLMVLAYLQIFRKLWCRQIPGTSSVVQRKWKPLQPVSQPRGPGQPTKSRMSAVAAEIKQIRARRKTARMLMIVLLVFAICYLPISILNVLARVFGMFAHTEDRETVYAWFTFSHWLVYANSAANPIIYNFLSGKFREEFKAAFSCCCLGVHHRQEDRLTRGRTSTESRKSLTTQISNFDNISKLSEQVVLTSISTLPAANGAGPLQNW
T6 sequence (O43614 whole entry R328A): as the sequence (O43614 whole entry K327A) above, with A327K, R328A counted along it
T1 sequence (O43614 whole entry F346A): as the sequence (O43614 whole entry K327A) above, with A327K, F346A counted along it
T5 sequence (O43614 whole entry V353A): as the sequence (O43614 whole entry K327A) above, with A327K, V353A counted along it
T5 sequence (P32121 whole entry partner): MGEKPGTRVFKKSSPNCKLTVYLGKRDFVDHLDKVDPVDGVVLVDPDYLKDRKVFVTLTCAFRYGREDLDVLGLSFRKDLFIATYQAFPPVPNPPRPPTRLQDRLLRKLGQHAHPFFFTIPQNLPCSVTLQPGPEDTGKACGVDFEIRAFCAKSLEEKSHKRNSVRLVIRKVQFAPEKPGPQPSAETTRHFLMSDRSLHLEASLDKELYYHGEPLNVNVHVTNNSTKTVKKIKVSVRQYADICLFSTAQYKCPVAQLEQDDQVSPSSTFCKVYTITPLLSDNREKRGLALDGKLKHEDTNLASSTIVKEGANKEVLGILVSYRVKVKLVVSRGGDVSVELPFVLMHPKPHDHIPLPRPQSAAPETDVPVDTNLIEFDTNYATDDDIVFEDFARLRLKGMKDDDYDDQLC

EC50 (OX2R F346A): 0.35 µM
EC50 (OX2R T111S; IP accumulation): 0.23 µM
% IP accumulation (OX2R T111S; TAK-925 conc (log, M) -4.00, normalized to OX2R WT Emax): 70.98% and 87.26% and 72.84%
% IP accumulation (OX2R T111S; TAK-925 conc (log, M) -4.48): 81.25% and 84.62% and 46.26%
% IP accumulation (OX2R T111S; TAK-925 conc (log, M) -4.95): 89.34% and 80.76% and 67.67%
% IP accumulation (OX2R T111S; TAK-925 conc (log, M) -5.43): 71.72% and 74.73% and 72.02%
% IP accumulation (OX2R T111S; TAK-925 conc (log, M) -5.91): 64.42% and 69.82% and 64.34%
% IP accumulation (OX2R T111S; TAK-925 conc (log, M) -6.39): 51.66% and 41.45% and 43.47%
% IP accumulation (OX2R T111S; TAK-925 conc (log, M) -6.86): 34.40% and 35.79% and 28.55%
% IP accumulation (OX2R T111S; TAK-925 conc (log, M) -7.34): 18.97% and 17.10% and 14.95%
% IP accumulation (OX2R T111S; TAK-925 conc (log, M) -7.82): 8.44% and 12.15% and 9.41%
% IP accumulation (OX2R T111S; TAK-925 conc (log, M) -8.29): 4.76% and 0.00% and 2.26%
% IP accumulation (OX2R T111S; TAK-925 conc (log, M) -8.77): 0.00% and 8.93%
Emax (OX2R T111S; relative to OX2R WT/TAK-925): 76
EC50 (OX2R K327A): 2.3 µM
EC50 (OX2R T111S/T135A; pEC50 ± SEM, read-out: pEC50 (converted)): 3.98 µM
EC50 (OX2R T111S/T135A; read-out: EC50): 3.6 µM
% IP accumulation (OX2R T111S/T135A; TAK-925 conc (log, M) -4.00): 75.61% and 80.32% and 68.16%
% IP accumulation (OX2R T111S/T135A; TAK-925 conc (log, M) -4.48): 79.41% and 78.58% and 59.24%
% IP accumulation (OX2R T111S/T135A; TAK-925 conc (log, M) -4.95): 63.00% and 60.94% and 53.37%
% IP accumulation (OX2R T111S/T135A; TAK-925 conc (log, M) -5.43): 45.74% and 44.90% and 36.03%
% IP accumulation (OX2R T111S/T135A; TAK-925 conc (log, M) -5.91): 30.51% and 19.14% and 15.90%
% IP accumulation (OX2R T111S/T135A; TAK-925 conc (log, M) -6.39): 18.69% and 18.10% and 13.23%
% IP accumulation (OX2R T111S/T135A; TAK-925 conc (log, M) -8.29): 6.54% and 0.00%
% IP accumulation (OX2R T111S/T135A; TAK-925 conc (log, M) -8.77): 0.00% and 2.28% and 1.85%
Emax (OX2R T111S/T135A; relative to OX2R WT/TAK-925): 78
EC50 (OX2R V353A): 5.5 µM
EC50 (OX2R R328A): 3 µM
Structure (SMILES): COC(=O)N1CCC[C@H](NS(C)(=O)=O)[C@@H]1CO[C@H]1CC[C@@H](c2ccccc2)CC1 [TAK-925, methyl (2R,3S)−3-[(methylsulfonyl)amino]−2-{[(cis−4-phenylcyclohexyl)oxy]methyl}piperidine-1-carboxylate]
potency for OX2R activation (OX2R): low-nanomolar
wakefulness and sleep time (wakefulness): dose-dependent increase in wakefulness and reduction in sleep time
